From patent US6093742A, “Inhibitors of p38” (Vertex Pharmaceuticals, Inc., priority 1997, dated 2000)

Molecular target: T1, p38 (Homo sapiens, UniProt Q16539)
T1 construct: made in house; host or cells: Trichoplusia ni (Tn-368) High-Five insect cells infected with recombinant baculovirus (virus made in Sf9)
Test: p38 inhibition assay: inhibition of phosphorylation of EGF receptor peptide
Assay type: biochemical
Conditions: activated p38 (5 nM), EGF receptor peptide 200 μM, ATP 100 μM, 30 min at 30° C., pH 7.6, HPLC
From the text: Two splice variants of human p38 kinase, CSBPl and CSBP2, have been identified. Specific oligonucleotide primers were used to amplify the coding region of CSBP2 cDNA using a HeLa cell library (Stratagene) as a template. The polymerase chain reaction product was cloned into the pET-15b vector (Novagen). The baculovirus transfer vector, pVL-(His)6-p38 was constructed by subcloning a XbaI-BamHI fragment of pET15b-(His)6-p38 into the complementary sites in plasmid pVL1392 (Pharmingen).
P38 was activated by combining 0.5 mg/ml p38 with 0.005 mg/ml DD-double mutant MKK6 in Buffer B+10 mM MgCl2, 2 mM ATP, 0.2 mM Na2VO4 for 30 minutes at 20° C. The activation mixture was then loaded onto a 1.0×10 cm MonoQ column (Pharmacia) and eluted with a linear 20 column volume gradient to 1.0 M NaCl in Buffer B. The activated p38 eluted after the ADP and ATP. The activated p38 peak was pooled and dialyzed against buffer B+0.2 mM Na2VO4 to remove the NaCl. The dialyzed protein was adjusted to 1.1M potassium phosphate by addition of a 4.0M stock solution and loaded onto a 1.0×10 cm HIC (Rainin Hydropore) column previously equilibrated in Buffer D (10% glycerol, 20 mM β-glycerophosphate, 2.0 mM DTT)+1.1MK2HPO4. The protein was eluted with a 20 column volume linear gradient to Buffer D+50 mM K2HPO4. The double phosphorylated p38 eluted as the main peak and was pooled for dialysis against Buffer B+0.2 mM Na2VO4. The activated p38 was stored at -70° C.
Inhibition of Phosphorylation of EGF Receptor Peptide
This assay was carried out in the presence of 10 mM MgCl2, 25 mM β-glycerophosphate, 10% glycerol and 100 mM HEPES buffer at pH 7.6. For a typical IC50 determination, a stock solution was prepared containing all of the above components and activated p38 (5 nM). The stock solution was aliquotted into vials. A fixed volume of DMSO or inhibitor in DMSO (final concentration of DMSO in reaction was 5%) was introduced to each vial, mixed and incubated for 15 minutes at room temperature. EGF receptor peptide, […], a phosphoryl acceptor in p38-catalyzed kinase reaction (1), was added to each vial to a final concentration of 200 μM. The kinase reaction was initiated with ATP (100 μM) and the vials were incubated at 30° C. After 30 minutes, the reactions were quenched with equal volume of 10% trifluoroacetic acid (TFA).
The phosphorylated peptide was quantified by HPLC analysis. Separation of phosphorylated peptide from the unphosphorylated peptide was achieved on a reverse phase column (Deltapak, 5 μm, C18 100D, part no. 011795) with a binary gradient of water and acteonitrile, each containing 0.1% TFA. IC50 (concentration of inhibitor yielding 50% inhibition) was determined by plotting the % activity remaining against inhibitor concentration.

T1 sequence (Q16539 whole entry): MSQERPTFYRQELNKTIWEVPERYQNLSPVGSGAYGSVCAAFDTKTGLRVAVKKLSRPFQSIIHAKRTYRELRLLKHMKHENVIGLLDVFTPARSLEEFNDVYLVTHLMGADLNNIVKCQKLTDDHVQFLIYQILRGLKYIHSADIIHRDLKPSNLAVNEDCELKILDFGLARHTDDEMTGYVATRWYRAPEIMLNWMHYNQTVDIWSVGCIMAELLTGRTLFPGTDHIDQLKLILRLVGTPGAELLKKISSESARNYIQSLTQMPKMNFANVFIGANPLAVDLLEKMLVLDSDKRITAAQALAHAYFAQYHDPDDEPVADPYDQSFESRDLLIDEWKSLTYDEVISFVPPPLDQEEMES

SMILES	IC50
O=C(Nc1ccccc1)Nc1ccc(Cl)c(Cl)c1 [Compound 62]	5600 nM
COc1cc(OC)c(NC(=O)Nc2ccc(F)c(F)c2)cc1Cl [Compound 33]	1820 nM
COc1cc(OC)c(NC(=O)N(CC(=O)O)c2ccccc2)cc1Cl [Compound 34]	19000 nM
O=C(Nc1cccc(C(=O)O)c1)Nc1ccc(Cl)c(Cl)c1 [Compound 63]	5800 nM
COc1cc(Cl)c(C)cc1NC(=O)Nc1ccccc1 [Compound 4]	100 nM
O=C(Nc1ccc(Cl)c(Cl)c1)Nc1ccc2c(c1)OCCO2 [Compound 126]	5600 nM
CCOc1ccccc1NC(=O)Nc1ccc(Cl)c(Cl)c1 [Compound 121]	2200 nM
O=C(Nc1ccc(Cl)c(Cl)c1)Nc1ccc(Cl)c(Cl)c1 [Compound 64]	130 nM
COc1cc([N+](=O)[O-])c(C)cc1NC(=O)Nc1ccccc1 [Compound 13]	140 nM
COc1cc(OC)c(NC(=O)Nc2ccc(Oc3ccccc3)cc2)cc1Cl [Compound 20]	8000 nM
COc1cc(Cl)c(C)cc1NC(=O)Nc1ccccc1 [Compound 61]	140 nM
NC(=O)c1ccccc1NC(=O)Nc1ccc(Cl)c(Cl)c1 [Compound 107]	100 nM
COc1cc(C)cc(NC(=O)Nc2ccc(Cl)c(Cl)c2)c1 [Compound 118]	14700 nM
COC(=O)c1ccccc1NC(=O)Nc1ccc(Cl)c(Cl)c1 [Compound 119]	6300 nM
O=C(Nc1ccc(Cl)c(Cl)c1)Nc1ccc(Br)cc1C(=O)O [Compound 125]	8400 nM
COc1cc(OC)c(NC(=O)Nc2ccc(F)cc2)cc1Cl [Compound 29]	1450 nM

SMILES	IC50
COc1cc(OC)c(NC(=O)Nc2cc(C)ccc2Cl)cc1Cl [Compound 37]	5100 nM
COc1cc(OC)c(NC(=O)Nc2ccccc2)cc1Cl [Compound 12]	380 nM
COc1cc(OC)c(NC(=O)Nc2ccccc2F)cc1Cl [Compound 31]	500 nM
COc1cc(OC)c(NC(=O)Nc2ccccc2)cc1Cl [Compound 25]	1000 nM
Cc1cc(C)c(NC(=O)Nc2ccccc2)cc1C [Compound 10]	4200 nM
O=C(Nc1ccc(Cl)c(Cl)c1)Nc1ccccc1Cl [Compound 122]	15100 nM
COc1cc(OC)c(NC(=O)Nc2ccc(Cl)cc2F)cc1Cl [Compound 30]	1200 nM
COc1cc(OC)c(NC(=O)Nc2ccccc2O)cc1Cl [Compound 28]	7400 nM
O=C(Nc1ccc(Cl)c(Cl)c1)Nc1cccc2cccnc12 [Compound 131]	6300 nM
COc1cc(OC)c(NC(=O)Nc2ccc(Cl)c(Cl)c2)cc1Cl [Compound 24]	500 nM
Cc1cc(Cl)c([N+](=O)[O-])cc1NC(=O)Nc1ccccc1 [Compound 3]	370 nM
COc1cc(OC)c(NC(=O)Nc2cccc(F)c2)cc1Cl [Compound 35]	630 nM
COc1cc(OC)c(NC(=O)Nc2ccc3c(c2)OCO3)cc1Cl [Compound 40]	1500 nM
COc1cc(OC)c(NC(=O)Nc2cccc(Oc3ccccc3)c2)cc1Cl [Compound 22]	1900 nM
Cc1cc(NC(=O)Nc2ccccc2)c(Cl)cc1F [Compound 15]	5800 nM
